Laboratory results: ChEMBL document CHEMBL2073924, “Carrier-mediated hepatic uptake of peptidic endothelin antagonists in rats” (J Pharmacol Exp Ther, 1999)
Peptide text beside a SMILES is read from it.

Assays:
[1] = target: T1, Solute carrier organic anion transporter family member 1A1 (Rattus norvegicus, UniProt P46720); test: TP_TRANSPORTER: uptake in Oatp1-expressing COS-7 cells; assay type: functional, cell-based; conditions: monkey
T1 sequence (P46720 whole entry): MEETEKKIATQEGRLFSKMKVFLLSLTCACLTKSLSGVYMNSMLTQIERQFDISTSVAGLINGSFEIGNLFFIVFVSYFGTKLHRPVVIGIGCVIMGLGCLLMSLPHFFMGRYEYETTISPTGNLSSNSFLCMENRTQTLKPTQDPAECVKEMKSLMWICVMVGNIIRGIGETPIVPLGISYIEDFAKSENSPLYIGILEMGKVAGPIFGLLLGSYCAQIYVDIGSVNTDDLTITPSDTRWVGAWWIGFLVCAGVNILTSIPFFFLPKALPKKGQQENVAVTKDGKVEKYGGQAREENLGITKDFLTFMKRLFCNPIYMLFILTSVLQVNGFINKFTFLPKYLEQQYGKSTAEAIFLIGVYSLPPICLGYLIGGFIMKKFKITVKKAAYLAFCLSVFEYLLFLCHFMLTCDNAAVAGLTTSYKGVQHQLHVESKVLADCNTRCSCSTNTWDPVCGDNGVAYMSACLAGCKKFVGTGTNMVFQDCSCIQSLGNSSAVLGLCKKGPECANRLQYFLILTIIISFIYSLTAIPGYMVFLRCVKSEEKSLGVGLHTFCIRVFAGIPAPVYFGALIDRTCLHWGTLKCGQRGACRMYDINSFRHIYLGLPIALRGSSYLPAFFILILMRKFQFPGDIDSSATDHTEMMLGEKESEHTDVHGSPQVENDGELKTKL

[2] = target: T2, Hepatic sodium/bile acid cotransporter (Rattus norvegicus, UniProt P26435); test: TP_TRANSPORTER: uptake in Ntcp-expressing COS-7 cells; assay type: functional, cell-based; conditions: monkey
T2 sequence (P26435 whole entry): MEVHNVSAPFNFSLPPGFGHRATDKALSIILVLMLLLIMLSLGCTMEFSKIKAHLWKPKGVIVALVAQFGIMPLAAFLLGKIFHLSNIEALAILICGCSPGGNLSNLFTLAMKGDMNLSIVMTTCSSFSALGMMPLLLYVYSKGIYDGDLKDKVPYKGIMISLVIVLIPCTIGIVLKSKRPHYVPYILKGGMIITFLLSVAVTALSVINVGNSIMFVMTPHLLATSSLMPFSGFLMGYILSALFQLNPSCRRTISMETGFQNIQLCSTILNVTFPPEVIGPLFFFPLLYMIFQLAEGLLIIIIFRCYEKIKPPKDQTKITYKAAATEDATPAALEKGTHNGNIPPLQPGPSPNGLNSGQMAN

Question: `CC(C)C[C@@H]1NC(=O)[C@@H](C(C)C)NC(=O)[C@@H]2CCCN2C(=O)[C@@H](CC(=O)O)NC(=O)[C@@H](Cc2c[nH]c3ccccc23)NC1=O` [BQ-123] (HELM PEPTIDE1{L.[dW].[dD].P.[dV]}$PEPTIDE1,PEPTIDE1,1:R1-5:R2$$$V2.0) was tested. Which Activity [1] did it give?
Answer: is not a substrate [-]

Question: And the Activity [2]?
Answer: is not a substrate [-]
